Common to all, as to type: functional
Assay [1] concerns SUD4. Description: Growth inhibition of human SU-DHL-4 cells at 0.33 uM incubated for 3 days (reference value: 2%). To be noted: SU-DHL-4, 72 h, time 3 day, read-out: GI.
Assay [2] deals with SUD4. Description: Growth inhibition of human SU-DHL-4 cells at 0.003 uM incubated for 3 days (reference value: -1%). To be noted: SU-DHL-4, 72 h, time 3 day, read-out: GI.
For assay [3], the system named is SUD4. Description: Growth inhibition of human SU-DHL-4 cells at 0.033 uM incubated for 3 days (reference value: -1%). To be noted: SU-DHL-4, 72 h, time 3 day, read-out: GI.
The test system of assay [4] is OCI-Ly10. Description: Growth inhibition of human OCILY10 cells at 1.7 uM incubated for 3 days (Rvb= -3%). To be noted: OCI-Ly10, 72 h, time 3 day, read-out: GI.
Assay [5] concerns SUD4. Description: Growth inhibition of human SU-DHL-4 cells at 0.017 uM incubated for 3 days (reference value: -1%). To be noted: SU-DHL-4, 72 h, time 3 day, read-out: GI.
Assay [6] relates to OCI-Ly10. Description: Growth inhibition of human OCILY10 cells at 3.3 uM incubated for 3 days (Rvb= -3%). To be noted: OCI-Ly10, 72 h, time 3 day, read-out: GI.
Assay [7] deals with OCI-Ly10. Description: Growth inhibition of human OCILY10 cells at 0.017 uM incubated for 3 days (reference value: -2%). To be noted: OCI-Ly10, 72 h, time 3 day, read-out: GI.
Assay [8] deals with SUD4. Description: Growth inhibition of human SU-DHL-4 cells at 0.33 uM incubated for 3 days (reference value: -1%). To be noted: SU-DHL-4, 72 h, time 3 day, read-out: GI.
Assay [9] concerns OCI-Ly10. Description: Growth inhibition of human OCILY10 cells at 0.017 uM incubated for 3 days (Rvb= -3%). To be noted: OCI-Ly10, 72 h, time 3 day, read-out: GI.
Assay [10] concerns OCI-Ly10. Description: Growth inhibition of human OCILY10 cells at 0.033 uM incubated for 3 days (Rvb= -3%). To be noted: OCI-Ly10, 72 h, time 3 day, read-out: GI.
For assay [11], the system named is OCI-Ly10. Description: Growth inhibition of human OCILY10 cells at 0.003 uM incubated for 3 days (reference value: -2%). To be noted: OCI-Ly10, 72 h, time 3 day, read-out: GI.
Assay [12] has as its system SUD4. Description: Growth inhibition of human SU-DHL-4 cells at 0.017 uM incubated for 3 days (reference value: 2%). To be noted: SU-DHL-4, 72 h, time 3 day, read-out: GI.
For assay [13], the system named is SUD4. Description: Growth inhibition of human SU-DHL-4 cells at 0.033 uM incubated for 3 days (reference value: 2%). To be noted: SU-DHL-4, 72 h, time 3 day, read-out: GI.
Assay [14] deals with OCI-Ly10. Description: Growth inhibition of human OCILY10 cells at 0.003 uM incubated for 3 days (Rvb= -3%). To be noted: OCI-Ly10, 72 h, time 3 day, read-out: GI.
Assay [15] deals with OCI-Ly10. Description: Growth inhibition of human OCILY10 cells at 0.17 uM incubated for 3 days (Rvb= -2%). To be noted: OCI-Ly10, 72 h, time 3 day, read-out: GI.
For assay [16], the system named is SUD4. Description: Growth inhibition of human SU-DHL-4 cells at 0.17 uM incubated for 3 days (reference value: -1%). To be noted: SU-DHL-4, 72 h, time 3 day, read-out: GI.
Assay [17] concerns OCI-Ly10. Description: Growth inhibition of human OCILY10 cells at 0.033 uM incubated for 3 days (reference value: -2%). To be noted: OCI-Ly10, 72 h, time 3 day, read-out: GI.
Assay [18] relates to SUD4. Description: Growth inhibition of human SU-DHL-4 cells at 0.003 uM incubated for 3 days (reference value: 2%). To be noted: SU-DHL-4, 72 h, time 3 day, read-out: GI.
In assay [19] the test system is OCI-Ly10. Description: Growth inhibition of human OCILY10 cells at 0.33 uM incubated for 3 days (reference value: -2%). To be noted: OCI-Ly10, 72 h, time 3 day, read-out: GI.
Assay [20] concerns SUD4. Description: Growth inhibition of human SU-DHL-4 cells at 0.17 uM incubated for 3 days (reference value: 2%). To be noted: SU-DHL-4, 72 h, time 3 day, read-out: GI.

On to `CC#CC(=O)N1CCC[C@H]1c1nc(-c2ccc(C(=O)Nc3ccccn3)cc2)c2c(N)nccn12` [ACALABRUTINIB], for which the inhibition of growth at 0.33 µM was 2% with SUD4 [1], -1% with SUD4 [8] and 115% with OCI-Ly10 [19]. For the same molecule, the inhibition of growth at 0.003 µM with SUD4 [2] was -1%; in the assay with OCI-Ly10 [11], 16%; in the assay on OCI-Ly10 [14], 13%; in the assay with SUD4 [18], 2%. Besides, the inhibition of growth at 0.033 µM was -3% in the assay on SUD4 [3], 88% with OCI-Ly10 [10], 2% in the assay on SUD4 [13] and 92% with OCI-Ly10 [17]. The inhibition of growth at 1.7 µM in the assay with OCI-Ly10 [4] came to 108%. The inhibition of growth at 0.017 µM in the assay on SUD4 [5] was -1%; with OCI-Ly10 [7], 77%; with OCI-Ly10 [9], 71%; in the assay with SUD4 [12], 2%. Moreover, in the assay with OCI-Ly10 [6], the inhibition of growth at 3.3 µM is 113%. Further, the inhibition of growth at 0.17 µM in the assay with OCI-Ly10 [15] was 111%; in the assay on SUD4 [16] it was -3%; with SUD4 [20], 2%.
